Key:
Type in all cases: functional
Settings in all cases: read-out: GI
[1] = test system: CCRF-CEM; experiment: Growth inhibition of human CCRF-CEM cells at 10 uM incubated for 48 hrs by sulforhodamine B assay relative to control
[2] = test system: K562; experiment: Growth inhibition of human K562 cells at 10 uM incubated for 48 hrs by sulforhodamine B assay relative to control
[3] = test system: RPMI-8226; experiment: Growth inhibition of human RPMI-8226 cells at 10 uM incubated for 48 hrs by sulforhodamine B assay relative to control
[4] = test system: A549; experiment: Growth inhibition of human A549/ATCC cells at 10 uM incubated for 48 hrs by sulforhodamine B assay relative to control
[5] = test system: HOP-92; experiment: Growth inhibition of human HOP-92 cells at 10 uM incubated for 48 hrs by sulforhodamine B assay relative to control
[6] = test system: NCI-H226; experiment: Growth inhibition of human NCI-H226 cells at 10 uM incubated for 48 hrs by sulforhodamine B assay relative to control
[7] = test system: NCI-H23; experiment: Growth inhibition of human NCI-H23 cells at 10 uM incubated for 48 hrs by sulforhodamine B assay relative to control
[8] = test system: NCI-H322M; experiment: Growth inhibition of human NCI-H322M cells at 10 uM incubated for 48 hrs by sulforhodamine B assay relative to control
[9] = test system: NCI-H460; experiment: Growth inhibition of human NCI-H460 cells at 10 uM incubated for 48 hrs by sulforhodamine B assay relative to control
[10] = test system: NCI-H522; experiment: Growth inhibition of human NCI-H522 cells at 10 uM incubated for 48 hrs by sulforhodamine B assay relative to control
[11] = test system: COLO 205; experiment: Growth inhibition of human COLO 205 cells at 10 uM incubated for 48 hrs by sulforhodamine B assay relative to control
[12] = test system: HCC 2998; experiment: Growth inhibition of human HCC 2998 cells at 10 uM incubated for 48 hrs by sulforhodamine B assay relative to control
[13] = test system: HCT-116; experiment: Growth inhibition of human HCT-116 cells at 10 uM incubated for 48 hrs by sulforhodamine B assay relative to control
[14] = test system: HCT-15; experiment: Growth inhibition of human HCT-15 cells at 10 uM incubated for 48 hrs by sulforhodamine B assay relative to control
[15] = test system: HT-29; experiment: Growth inhibition of human HT-29 cells at 10 uM incubated for 48 hrs by sulforhodamine B assay relative to control
[16] = test system: KM12; experiment: Growth inhibition of human KM12 cells at 10 uM incubated for 48 hrs by sulforhodamine B assay relative to control
[17] = test system: SW-620; experiment: Growth inhibition of human SW-620 cells at 10 uM incubated for 48 hrs by sulforhodamine B assay relative to control
[18] = test system: SF-268; experiment: Growth inhibition of human SF-268 cells at 10 uM incubated for 48 hrs by sulforhodamine B assay relative to control
[19] = test system: SNB-19; experiment: Growth inhibition of human SNB-19 cells at 10 uM incubated for 48 hrs by sulforhodamine B assay relative to control
[20] = test system: SNB-75; experiment: Growth inhibition of human SNB-75 cells at 10 uM incubated for 48 hrs by sulforhodamine B assay relative to control
[21] = test system: LOX IMVI; experiment: Growth inhibition of human LOX IMVI cells at 10 uM incubated for 48 hrs by sulforhodamine B assay relative to control
[22] = test system: Malme-3M; experiment: Growth inhibition of human Malme-3M cells at 10 uM incubated for 48 hrs by sulforhodamine B assay relative to control
[23] = test system: M14; experiment: Growth inhibition of human M14 cells at 10 uM incubated for 48 hrs by sulforhodamine B assay relative to control
[24] = test system: MDA-MB-435; experiment: Growth inhibition of human MDA-MB-435 cells at 10 uM incubated for 48 hrs by sulforhodamine B assay relative to control
[25] = test system: SK-MEL-28; experiment: Growth inhibition of human SK-MEL-28 cells at 10 uM incubated for 48 hrs by sulforhodamine B assay relative to control
[26] = test system: SK-MEL-5; experiment: Growth inhibition of human SK-MEL-5 cells at 10 uM incubated for 48 hrs by sulforhodamine B assay relative to control
[27] = test system: UACC-257; experiment: Growth inhibition of human UACC-257 cells at 10 uM incubated for 48 hrs by sulforhodamine B assay relative to control
[28] = test system: UACC-62; experiment: Growth inhibition of human UACC-62 cells at 10 uM incubated for 48 hrs by sulforhodamine B assay relative to control
[29] = test system: IGROV-1; experiment: Growth inhibition of human IGROV-1 cells at 10 uM incubated for 48 hrs by sulforhodamine B assay relative to control
[30] = test system: OVCAR-3; experiment: Growth inhibition of human OVCAR-3 cells at 10 uM incubated for 48 hrs by sulforhodamine B assay relative to control
[31] = test system: OVCAR-4; experiment: Growth inhibition of human OVCAR-4 cells at 10 uM incubated for 48 hrs by sulforhodamine B assay relative to control
[32] = test system: OVCAR-5; experiment: Growth inhibition of human OVCAR-5 cells at 10 uM incubated for 48 hrs by sulforhodamine B assay relative to control
[33] = test system: NCI/ADR-RES; experiment: Growth inhibition of human NCI/ADR-RES cells at 10 uM incubated for 48 hrs by sulforhodamine B assay relative to control
[34] = test system: SK-OV-3; experiment: Growth inhibition of human SK-OV-3 cells at 10 uM incubated for 48 hrs by sulforhodamine B assay relative to control
[35] = test system: 786-0; experiment: Growth inhibition of human 786-0 cells at 10 uM incubated for 48 hrs by sulforhodamine B assay relative to control
[36] = test system: ACHN; experiment: Growth inhibition of human ACHN cells at 10 uM incubated for 48 hrs by sulforhodamine B assay relative to control
[37] = test system: CAKI-1; experiment: Growth inhibition of human CAKI-1 cells at 10 uM incubated for 48 hrs by sulforhodamine B assay relative to control
[38] = test system: RXF 393; experiment: Growth inhibition of human RXF 393 cells at 10 uM incubated for 48 hrs by sulforhodamine B assay relative to control
[39] = test system: TK-10; experiment: Growth inhibition of human TK-10 cells at 10 uM incubated for 48 hrs by sulforhodamine B assay relative to control
[40] = test system: DU-145; experiment: Growth inhibition of human DU-145 cells at 10 uM incubated for 48 hrs by sulforhodamine B assay relative to control
[41] = test system: MCF7; experiment: Growth inhibition of human MCF7 cells at 10 uM incubated for 48 hrs by sulforhodamine B assay relative to control
[42] = test system: MDA-MB-231; experiment: Growth inhibition of human MDA-MB-231 cells at 10 uM incubated for 48 hrs by sulforhodamine B assay relative to control
[43] = test system: BT-549; experiment: Growth inhibition of human BT-549 cells at 10 uM incubated for 48 hrs by sulforhodamine B assay relative to control
[44] = test system: T47D; experiment: Growth inhibition of human T47D cells at 10 uM incubated for 48 hrs by sulforhodamine B assay relative to control

## O=C(CNc1ccc(Cl)cc1)Nc1ccc(-c2nc3ccccc3s2)cc1
[1]
  inhibition of growth at 10 µM: 96.8%
[2]
  inhibition of growth at 10 µM: 88.1%
[3]
  inhibition of growth at 10 µM: 54%
[4]
  inhibition of growth at 10 µM: 11%
[5]
  inhibition of growth at 10 µM: 2.16%
[6]
  inhibition of growth at 10 µM: 41.9%
[7]
  inhibition of growth at 10 µM: 60.9%
[8]
  inhibition of growth at 10 µM: 19.7%
[9]
  inhibition of growth at 10 µM: 12.9%
[10]
  inhibition of growth at 10 µM: 194%
[11]
  inhibition of growth at 10 µM: 53%
[12]
  inhibition of growth at 10 µM: 116%
[13]
  inhibition of growth at 10 µM: 76.7%
[14]
  inhibition of growth at 10 µM: 114%
[15]
  inhibition of growth at 10 µM: 52.1%
[16]
  inhibition of growth at 10 µM: 19.3%
[17]
  inhibition of growth at 10 µM: 77.4%
[18]
  inhibition of growth at 10 µM: 75.9%
[19]
  inhibition of growth at 10 µM: 36.4%
[20]
  inhibition of growth at 10 µM: 39.9%
[21]
  inhibition of growth at 10 µM: 141%
[22]
  inhibition of growth at 10 µM: 130%
[23]
  inhibition of growth at 10 µM: 55.8%
[24]
  inhibition of growth at 10 µM: 37.2%
[25]
  inhibition of growth at 10 µM: 0.54%
[26]
  inhibition of growth at 10 µM: 75%
[27]
  inhibition of growth at 10 µM: 9.09%
[28]
  inhibition of growth at 10 µM: 69.9%
[29]
  inhibition of growth at 10 µM: 65.7%
[30]
  inhibition of growth at 10 µM: 71.1%
[31]
  inhibition of growth at 10 µM: 76.9%
[32]
  inhibition of growth at 10 µM: -21.1%
[33]
  inhibition of growth at 10 µM: 35.5%
[34]
  inhibition of growth at 10 µM: 10.2%
[35]
  inhibition of growth at 10 µM: 73%
[36]
  inhibition of growth at 10 µM: 77.2%
[37]
  inhibition of growth at 10 µM: 79.8%
[38]
  inhibition of growth at 10 µM: 15.8%
[39]
  inhibition of growth at 10 µM: -18.4%
[40]
  inhibition of growth at 10 µM: 29.8%
[41]
  inhibition of growth at 10 µM: 88.5%
[42]
  inhibition of growth at 10 µM: 62.4%
[43]
  inhibition of growth at 10 µM: 83.3%
[44]
  inhibition of growth at 10 µM: 95.4%
